Laboratory results reported in patent US20260265305A1, “POLYPEPTIDE DERIVATIVE FOR ORAL DELIVERY” (Hangzhou Sciwind Biosciences Co., Ltd., priority 2023, published 2026).
Read-outs that look alike come from different tables or passages of the source. Numbered stars: 1 amine (or outer) side, 2 acyl side, 3 side chain; on linkers, the order of the positions; unused ones are H or OH. Square brackets hold non-standard residues; d marks the D form. Peptide text beside a SMILES is read from it. * marks the point of attachment. C20 diacid = O=C(O)CCCCCCCCCCCCCCCCCCC(=O)*; C18 diacid = O=C(O)CCCCCCCCCCCCCCCCC(=O)*; γGlu = O=C(O)[C@H](CCC(=O)[*:2])N[*:1]; Trx = NC[C@H]1CC[C@H](C(=O)O)CC1; AEEA = NCCOCCOCC(=O)O; Inp = O=C(O)C1CCNCC1

Tests used:
[1] = Heat accelerated stability assay of polypeptide solutions (40° C., pH about 7.4), reversed phase chromatography; assay type: physicochemical; conditions: 40° C.; for Concentration change on 7 d / Concentration change on 26 d: pH about 7.4, 1 mg/mL; for Concentration change on 7 d / Purity change on 7 d: Day 7; for Concentration change on 26 d / Purity change on 26 d: Day 26; for Purity change on 7 d / Purity change on 26 d: reversed phase chromatography 214 nm; for Purity change on 7 d: purity on 7 d − purity on 0 d; for Purity change on 26 d: purity on 26 d − purity on 0 d
How it was run: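 Polypeptide derivative lyophilisate (1 mg/mL) with sodium dihydrogen phosphate (1.42 mg/mL) in water, pH about 7.4, sterile-filtered, vialed and held at 40° C; sampled on days 7 and 26. After centrifugation, concentration and purity (target/total peak area) by C18 RP-HPLC, TFA/ACN gradient, 280 and 214 nm.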

amylin receptor (hAMY3R) = target: T1, amylin receptor (hAMY3R) (Homo sapiens, UniProt O60896+P30988); experiment: Amylin receptor agonism testing, CRE-luciferase assay in stably transfected CHO-K1/Ga15/AMY3 cells; assay type: cell-based; conditions: for Fold change in activity against hAMY3R: relative to D1 as benchmark
T1 construct: host or cells: CHO-K1/Ga15/AMY3 cells, further stably transfected with a CRE-luciferase plasmid
T1 sequence (P30988 25-474): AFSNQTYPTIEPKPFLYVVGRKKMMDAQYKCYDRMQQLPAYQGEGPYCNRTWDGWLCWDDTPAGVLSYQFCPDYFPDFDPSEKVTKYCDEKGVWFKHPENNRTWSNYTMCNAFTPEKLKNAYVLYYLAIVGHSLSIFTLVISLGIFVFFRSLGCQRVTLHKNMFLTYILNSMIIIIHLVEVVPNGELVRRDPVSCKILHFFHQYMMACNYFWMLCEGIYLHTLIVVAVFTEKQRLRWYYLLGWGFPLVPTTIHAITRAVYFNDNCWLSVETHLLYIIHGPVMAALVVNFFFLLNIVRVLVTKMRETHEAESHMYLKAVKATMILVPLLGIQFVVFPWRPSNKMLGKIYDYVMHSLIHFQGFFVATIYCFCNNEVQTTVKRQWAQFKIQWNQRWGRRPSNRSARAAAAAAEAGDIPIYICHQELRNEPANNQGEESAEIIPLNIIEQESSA
T1 sequence (O60896 24-148): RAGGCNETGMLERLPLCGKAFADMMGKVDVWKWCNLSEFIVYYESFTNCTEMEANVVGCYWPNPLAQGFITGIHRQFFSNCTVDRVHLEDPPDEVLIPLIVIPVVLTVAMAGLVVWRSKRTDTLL
Description: The objective of this assay is to test the potency of the polypeptide derivatives in the present application on amylin and calcitonin receptors in vitro using a luciferase assay.
Using the standard protocol for construction of an amylin receptor/CRE-luc cell line, CHO-K1/Ga15/AMY3 cells (purchased from GenScript, with the calcitonin receptor and the receptor activity modifying peptide (RAMP) constructed already) were transfected with a plasmid containing a luciferase expression cassette driven by multiple copies of cAMP response elements (CREs). The cells were cultured in an F12 medium containing 200 ug/mL Zeocin, 2 ug/mL puromycin, 100 ug/mL hygromycin, and 400 ug/mL G418 to afford a stably transfected amylin receptor/CRE-luc cell line.
To each well of a white 96-well plate was added 50 μL of the tested sample solution at a respective concentration.
The stably transfected amylin receptor/CRE-luc CHO cells were resuspended in the growth medium at a certain density, and 50 μL of the cell suspension was added at a density of about 20,000 cells per well to the white 96-well plate containing the tested sample solution. After incubation of 24 hours at 37° C. and 5% CO2, 100 μL of a Luciferase substrate was added to each well, incubated for 3 minutes, and finally was tested for luminescence on SpectraMax L (Molecular Devices) with the software SoftMax Pro 7.0.3 GxP. A standard curve was plotted using the fluorescent intensities for calculation of EC50.

[2] = target: T2, calcitonin receptor (hCTR) (Homo sapiens, UniProt P30988); experiment: Calcitonin receptor agonism, CRE-luciferase assay in stably transfected CHO-K1/CALCR/Ga15 cells; assay type: cell-based; conditions: for Fold change in activity against hCTR: relative to D1 as benchmark; for EC50: incubation of 24 hours, Table 4, read-out: EC50, activity against the calcitonin receptor in cells
T2 construct: host or cells: CHO-K1/CALCR/Ga15 cells, further stably transfected with a CRE-luciferase plasmid
T2 sequence (P30988 25-474): T1 sequence (P30988 25-474)

[3] = Animal study: weight change and accumulated food intake in SD rats after subcutaneous dosing; assay type: in vivo, SD (Sprague Dawley) rats; conditions: 10 nmol/kg subcutaneous
Description: SD (Sprague Dawley) rats weighing 200-250 g were used for this study. The rats were received at least 10-14 days before the study began such that they could accommodate to the experimental environment. After arrival, they were exposed to a reversed light/dark cycle (i.e., lights switched off in daytime and on in nighttime) for two weeks and were individually housed for the first week so as to ensure high data accuracy and test sensitivity. Throughout the acclimation and experiment period, the rats had free access to food and water. 5-8 rats were assigned to each testing group for the derivatives and were subcutaneously administered the derivatives at a dose of 10 nmol/kg or a vehicle (20 mM phosphate buffer, PB, pH 7.0), and the dosing timepoint was recorded for each group. After dosing, the rats were put back into cages where they were housed and could have access to food and water. Food consumption and weight change of the rats were recorded online or manually every 24 hours. Percent of weight change=(BWTn−BWT0)/BWT0*100%, wherein BW represented the value of body weight, and T0 and Tn represented the time point of dosing and n hours post dose respectively. Dots in the figures were represented utilizing mean±standard error of the mean (SEM).

[4] = incubation of 24 hours, Table 3, read-out: EC50, activity against the amylin receptor in cells

| Concentration change on 7 d [1] | Concentration change on 26 d [1] [%] | Purity change on 7 d [1] | Purity change on 26 d [1] | EC50 (amylin receptor (hAMY3R); Table 5 integrated analysis, read-out: hAMY3R EC50) [pM] | Fold change in activity against hAMY3R (amylin receptor (hAMY3R)) | Fold change in activity against hCTR [2] | increase in the ratio of activity against the amylin receptor to agonistic activity against the calcitonin receptor (amylin receptor (hAMY3R); relative to the benchmark D1) [fold] | EC50 [2] [pM] | EC50 (amylin receptor (hAMY3R); [4]) [pM] | SMILES | effect on body weight of SD rats ([3]; FIGS. 1 and 3) | effect on accumulated food intake of SD rats ([3]; FIGS. 2 and 4) |
| --- | --- | --- | --- | --- | --- | --- | --- | --- | --- | --- | --- | --- |
| −1.927% | −5.985 | −1% | −3.9% |  | 0.571 | 0.332 | 1.7 | 259 |  | CC(C)C[C@H](NC(=O)[C@H](CCCNC(=N)N)NC(=O)CNC(=O)[C@H](CC(C)C)NC(=O)[C@@H](NC(=O)[C@H](C)NC(=O)[C@@H](NC(=O)[C@H](CO)NC(=O)[C@H](CC(C)C)NC(=O)[C@H](CCC(N)=O)NC(=O)[C@H](CO)NC(=O)[C@H](C)NC(=O)C1CCN(C(=O)CCCCCCCCCCCCCCCCC(=O)O)CC1)[C@@H](C)O)C(C)C)C(=O)N[C@@H](CO)C(=O)N[C@@H](CC(=O)O)C(=O)N[C@@H](CCC(=O)O)C(=O)N[C@@H](CC(C)C)C(=O)N[C@@H](Cc1c[nH]cn1)C(=O)N[C@@H](CCCNC(=N)N)C(=O)N[C@@H](CC(C)C)C(=O)N[C@@H](CCC(N)=O)C(=O)N[C@@H](CC(=O)O)C(=O)N[C@@H](Cc1ccc(O)cc1)C(=O)N1CCC[C@H]1C(=O)N[C@@H](CCCNC(=N)N)C(=O)N[C@H](C(=O)N[C@@H](CC(=O)O)C(=O)N[C@H](C(=O)NCC(=O)N[C@@H](CO)C(=O)NCC(=O)N[C@@H](CO)C(=O)N1CCC[C@H]1C(N)=O)C(C)C)[C@@H](C)O [M17] ({C18 diacid-Inp}-ASQLSTAVLGRLSDELHRLQDYPRTDVGSGSP-NH2) |  |  |
|  | −1.865 | 1.64% | No change |  | 2.118 | 3.071 |  | 28 |  | CC(C)C[C@H](NC(=O)[C@H](CCCNC(=N)N)NC(=O)CNC(=O)[C@H](CC(C)C)NC(=O)[C@@H](NC(=O)[C@H](C)NC(=O)[C@@H](NC(=O)[C@H](CO)NC(=O)[C@H](CC(C)C)NC(=O)[C@H](CCC(N)=O)NC(=O)[C@H](CO)NC(=O)[C@H](C)NC(=O)CC[C@H](NC(=O)CCCCCCCCCCCCCCCCCCC(=O)O)C(=O)O)[C@@H](C)O)C(C)C)C(=O)N[C@@H](CO)C(=O)N[C@@H](CC(=O)O)C(=O)N[C@@H](CCC(=O)O)C(=O)N[C@@H](CC(C)C)C(=O)N[C@@H](Cc1c[nH]cn1)C(=O)N[C@@H](CCCNC(=N)N)C(=O)N[C@@H](CC(C)C)C(=O)N[C@@H](CCC(N)=O)C(=O)N[C@@H](CC(=O)O)C(=O)N[C@@H](Cc1ccc(O)cc1)C(=O)N1CCC[C@H]1C(=O)N[C@@H](CCCNC(=N)N)C(=O)N[C@H](C(=O)N[C@@H](CC(=O)O)C(=O)N[C@H](C(=O)NCC(=O)N[C@@H](CO)C(=O)NCC(=O)N[C@@H](CO)C(=O)N1CCC[C@H]1C(N)=O)C(C)C)[C@@H](C)O [M6] ({C20 diacid-γGlu}-ASQLSTAVLGRLSDELHRLQDYPRTDVGSGSP-NH2) |  |  |
|  | −7.782 | No change | nearly no noticeable change in purity |  |  |  |  |  | 17 | CC(C)C[C@H](NC(=O)[C@H](CCCNC(=N)N)NC(=O)CNC(=O)[C@H](CC(C)C)NC(=O)[C@@H](NC(=O)[C@H](C)NC(=O)[C@@H](NC(=O)[C@H](CO)NC(=O)[C@H](CC(C)C)NC(=O)[C@H](CCC(N)=O)NC(=O)[C@H](CO)NC(=O)[C@H](C)NC(=O)COCCOCCNC(=O)COCCOCCNC(=O)[C@H](CCC(=O)O)NC(=O)CCCCCCCCCCCCCCCCCCC(=O)O)[C@@H](C)O)C(C)C)C(=O)N[C@@H](CO)C(=O)N[C@@H](CC(=O)O)C(=O)N[C@@H](CCC(=O)O)C(=O)N[C@@H](CC(C)C)C(=O)N[C@@H](Cc1c[nH]cn1)C(=O)N[C@@H](CCCNC(=N)N)C(=O)N[C@@H](CC(C)C)C(=O)N[C@@H](CCC(N)=O)C(=O)N[C@@H](CC(=O)O)C(=O)N[C@@H](Cc1ccc(O)cc1)C(=O)N1CCC[C@H]1C(=O)N[C@@H](CCCNC(=N)N)C(=O)N[C@H](C(=O)N[C@@H](CC(=O)O)C(=O)N[C@H](C(=O)NCC(=O)N[C@@H](CO)C(=O)NCC(=O)N[C@@H](CO)C(=O)N1CCC[C@H]1C(N)=O)C(C)C)[C@@H](C)O [M23] ({C20 diacid}-E[AEEA][AEEA]ASQLSTAVLGRLSDELHRLQDYPRTDVGSGSP-NH2) | apparently further reduced | apparently further reduced |
| −2.402% | −2.235 | −2.39% | −2.68% |  |  |  |  | 24 | 8 | CC(C)C[C@H](NC(=O)[C@H](CCCNC(=N)N)NC(=O)CNC(=O)[C@H](CC(C)C)NC(=O)[C@@H](NC(=O)[C@H](C)NC(=O)[C@@H](NC(=O)[C@H](CO)NC(=O)[C@H](CC(C)C)NC(=O)[C@H](CCC(N)=O)NC(=O)[C@H](CO)NC(=O)[C@H](C)NC(=O)COCCOCCNC(=O)COCCOCCNC(=O)[C@H](CC(=O)O)NC(=O)CCCCCCCCCCCCCCCCC(=O)O)[C@@H](C)O)C(C)C)C(=O)N[C@@H](CO)C(=O)N[C@@H](CC(=O)O)C(=O)N[C@@H](CCC(=O)O)C(=O)N[C@@H](CC(C)C)C(=O)N[C@@H](Cc1c[nH]cn1)C(=O)N[C@@H](CCCNC(=N)N)C(=O)N[C@@H](CC(C)C)C(=O)N[C@@H](CCC(N)=O)C(=O)N[C@@H](CC(=O)O)C(=O)N[C@@H](Cc1ccc(O)cc1)C(=O)N1CCC[C@H]1C(=O)N[C@@H](CCCNC(=N)N)C(=O)N[C@H](C(=O)N[C@@H](CC(=O)O)C(=O)N[C@H](C(=O)NCC(=O)N[C@@H](CO)C(=O)NCC(=O)N[C@@H](CO)C(=O)N1CCC[C@H]1C(N)=O)C(C)C)[C@@H](C)O [M26] ({C18 diacid}-D[AEEA][AEEA]ASQLSTAVLGRLSDELHRLQDYPRTDVGSGSP-NH2) |  |  |

| SMILES | Concentration change on 7 d [1] | Concentration change on 26 d [1] [%] | Purity change on 7 d [1] | Purity change on 26 d [1] | EC50 (amylin receptor (hAMY3R); Table 5 integrated analysis, read-out: hAMY3R EC50) [pM] | Fold change in activity against hAMY3R (amylin receptor (hAMY3R)) | Fold change in activity against hCTR [2] | increase in the ratio of activity against the amylin receptor to agonistic activity against the calcitonin receptor (amylin receptor (hAMY3R); relative to the benchmark D1) [fold] | EC50 [2] [pM] | EC50 (amylin receptor (hAMY3R); [4]) [pM] | effect on body weight of SD rats ([3]; FIGS. 1 and 3) | effect on accumulated food intake of SD rats ([3]; FIGS. 2 and 4) |
| --- | --- | --- | --- | --- | --- | --- | --- | --- | --- | --- | --- | --- |
| CC(C)C[C@H](NC(=O)[C@H](CCCNC(=N)N)NC(=O)CNC(=O)[C@H](CC(C)C)NC(=O)[C@@H](NC(=O)[C@H](C)NC(=O)[C@@H](NC(=O)[C@H](CO)NC(=O)[C@H](CC(C)C)NC(=O)[C@H](CCC(N)=O)NC(=O)[C@H](CO)NC(=O)[C@H](C)NC(=O)[C@H]1CC[C@H](CNC(=O)CCCCCCCCCCCCCCCCC(=O)O)CC1)[C@@H](C)O)C(C)C)C(=O)N[C@@H](CO)C(=O)N[C@@H](CC(=O)O)C(=O)N[C@@H](CCC(=O)O)C(=O)N[C@@H](CC(C)C)C(=O)N[C@@H](Cc1c[nH]cn1)C(=O)N[C@@H](CCCNC(=N)N)C(=O)N[C@@H](CC(C)C)C(=O)N[C@@H](CCC(N)=O)C(=O)N[C@@H](CC(=O)O)C(=O)N[C@@H](Cc1ccc(O)cc1)C(=O)N1CCC[C@H]1C(=O)N[C@@H](CCCNC(=N)N)C(=O)N[C@H](C(=O)N[C@@H](CC(=O)O)C(=O)N[C@H](C(=O)NCC(=O)N[C@@H](CO)C(=O)NCC(=O)N[C@@H](CO)C(=O)N1CCC[C@H]1C(N)=O)C(C)C)[C@@H](C)O [M15] ({C18 diacid-Trx}-ASQLSTAVLGRLSDELHRLQDYPRTDVGSGSP-NH2) | No change (concentration change of less than 1% (denoted as “no change”)) | −10.824 | No change | −5.67% | 119 | 0.303 | 0.183 |  |  |  |  |  |
